Legend:
Format in all cases: cell-based
rat TRPM8 channel = molecular target: T1, rat TRPM8 channel (Rattus norvegicus, UniProt Q8R455); assay: Inhibition of icilin-induced [Ca2+]i elevation in TRPM8-HEK-293 cells; details: 5-min preincubation, against icilin 0.25 μM
T1 construct: expressed in transfected cells; host or cells: HEK-293
Procedure: (§1) Assays of TRP-mediated elevation of intracellular [Ca^2+] were performed as previously described. In the current study we have used wild-type HEK293 cells, cells stably expressing rat TRPA1 or human TRPV1 or rat TRPM8. HEK-293 cells stably over-expressing recombinant rat TRPA1, rat TRPM8 or human TRPV1 were selected by G-418 (Geneticin; 600 μg·mL^−1), grown on 100 mm diameter Petri dishes as monolayers in minimum essential medium supplemented with non-essential amino acids, 10% fetal bovine serum and 2 mM glutamine, and maintained under 5% CO2 at 37 °C. Stable expression of each channel was confirmed by real time quantitative PCR (not shown). On the day of the experiment, the cells were loaded for 1 h at 25 °C with the cytoplasmic calcium indicator Fluo-4AM (Invitrogen Carlsbad, CA, USA) 4 μM in DMSO containing 0.02% Pluronic F-127 (Invitrogen, Carlsbad, CA, USA). After loading, cells were washed twice in Tyrode’s buffer (145 mM NaCl, 2.5 mM KCl, 1.5 mM CaCl2, 1.2 mM MgCl2, 10 mM D-glucose and 10 mM HEPES, pH 7.4), re-suspended in the same buffer, and transferred to the quartz cuvette of the spectrofluorimeter (λex = 488 nm; λem = 516 nm) (Perkin-Elmer LS50B equipped with PTP-1 Fluorescence Peltier System; Perkin-Elmer Life and Analytical Sciences, Waltham, MA, USA) under continuous stirring. About 100,000 cells were used for each data point. Experiments were carried out at 22 °C by measuring cell fluorescence before and after the addition of various concentrations of test compounds. The values of the effect on [Ca^2+]i in wild-type (i.e., not transfected with any construct) HEK-293 cells were taken as baselines and subtracted from the values obtained from transfected cells. The potency of test compounds (EC50 values) was determined as the concentration of test substances required to produce half-maximal increases in [Ca^2+]i. The efficacy of the agonists on TRPA1 is expressed as a percentage of the effect obtained with 100 μM allylisothiocyanate (AITC). Antagonist/desensitizing behaviour was evaluated against icilin (0.25 μM) for TRPM8 and AITC (100 μM) for TRPA1 by adding the compounds in the quartz cuvette 5 min before stimulation of cells with agonists. Data are expressed as the concentration exerting a half-maximal inhibition of agonist effect (IC50). All determinations were at least performed in triplicate. Dose-response curves were fitted by a sigmoidal regression with variable slope. Curve fitting and parameter estimation were performed with GraphPad Prism (GraphPad Software Inc., San Diego, CA, USA).

rat TRPA1 channel [1] = molecular target: T2, rat TRPA1 channel (Rattus norvegicus, UniProt Q6RI86); assay: TRPA1 desensitization/inhibition of AITC-induced [Ca2+]i elevation in TRPA1-HEK-293 cells; details: 5-min preincubation, against AITC 100 μM
T2 construct: expressed in transfected cells; host or cells: HEK-293
Procedure: as §1, with “Stable expression of each channel was confirmed by real time quantitative PCR (not shown).” left out

rat TRPA1 channel [2] = molecular target: T2, rat TRPA1 channel; assay: TRPA1 activation, fluorometric intracellular [Ca2+]i in TRPA1-HEK293 cells; details: for Efficacy TRPA1 (% AITC 100 μM) / EC50: rat TRPA1-HEK293 cells; for EC50: read-out: Potency EC50 TRPA1
Procedure: as §1, with “Stable expression of each channel was confirmed by real time quantitative PCR (not shown).” left out

[3] = molecular target: T3, human recombinant TRPV1 channel (Homo sapiens, UniProt Q8NER1); assay: Elevation of intracellular Ca2+ in HEK-293 cells stably transfected with TRPV1; details: at 10 μM
T3 construct: expressed in transfected cells; host or cells: HEK-293
Procedure: Assays of TRP-mediated elevation of intracellular [Ca^2+] were performed as previously described. In the current study we have used wild-type HEK293 cells, cells stably expressing rat TRPA1 or human TRPV1 or rat TRPM8. HEK-293 cells stably over-expressing recombinant rat TRPA1, rat TRPM8 or human TRPV1 were selected by G-418 (Geneticin; 600 μg·mL^−1), grown on 100 mm diameter Petri dishes as monolayers in minimum essential medium supplemented with non-essential amino acids, 10% fetal bovine serum and 2 mM glutamine, and maintained under 5% CO2 at 37 °C. […] After loading, cells were washed twice in Tyrode’s buffer (145 mM NaCl, 2.5 mM KCl, 1.5 mM CaCl2, 1.2 mM MgCl2, 10 mM D-glucose and 10 mM HEPES, pH 7.4), re-suspended in the same buffer, and transferred to the quartz cuvette of the spectrofluorimeter (λex = 488 nm; λem = 516 nm) (Perkin-Elmer LS50B equipped with PTP-1 Fluorescence Peltier System; Perkin-Elmer Life and Analytical Sciences, Waltham, MA, USA) under continuous stirring. […] Experiments were carried out at 22 °C by measuring cell fluorescence before and after the addition of various concentrations of test compounds. […] The potency of test compounds (EC50 values) was determined as the concentration of test substances required to produce half-maximal increases in [Ca^2+]i. […] Data are expressed as the concentration exerting a half-maximal inhibition of agonist effect (IC50). […]

T2 sequence (Q6RI86 whole entry): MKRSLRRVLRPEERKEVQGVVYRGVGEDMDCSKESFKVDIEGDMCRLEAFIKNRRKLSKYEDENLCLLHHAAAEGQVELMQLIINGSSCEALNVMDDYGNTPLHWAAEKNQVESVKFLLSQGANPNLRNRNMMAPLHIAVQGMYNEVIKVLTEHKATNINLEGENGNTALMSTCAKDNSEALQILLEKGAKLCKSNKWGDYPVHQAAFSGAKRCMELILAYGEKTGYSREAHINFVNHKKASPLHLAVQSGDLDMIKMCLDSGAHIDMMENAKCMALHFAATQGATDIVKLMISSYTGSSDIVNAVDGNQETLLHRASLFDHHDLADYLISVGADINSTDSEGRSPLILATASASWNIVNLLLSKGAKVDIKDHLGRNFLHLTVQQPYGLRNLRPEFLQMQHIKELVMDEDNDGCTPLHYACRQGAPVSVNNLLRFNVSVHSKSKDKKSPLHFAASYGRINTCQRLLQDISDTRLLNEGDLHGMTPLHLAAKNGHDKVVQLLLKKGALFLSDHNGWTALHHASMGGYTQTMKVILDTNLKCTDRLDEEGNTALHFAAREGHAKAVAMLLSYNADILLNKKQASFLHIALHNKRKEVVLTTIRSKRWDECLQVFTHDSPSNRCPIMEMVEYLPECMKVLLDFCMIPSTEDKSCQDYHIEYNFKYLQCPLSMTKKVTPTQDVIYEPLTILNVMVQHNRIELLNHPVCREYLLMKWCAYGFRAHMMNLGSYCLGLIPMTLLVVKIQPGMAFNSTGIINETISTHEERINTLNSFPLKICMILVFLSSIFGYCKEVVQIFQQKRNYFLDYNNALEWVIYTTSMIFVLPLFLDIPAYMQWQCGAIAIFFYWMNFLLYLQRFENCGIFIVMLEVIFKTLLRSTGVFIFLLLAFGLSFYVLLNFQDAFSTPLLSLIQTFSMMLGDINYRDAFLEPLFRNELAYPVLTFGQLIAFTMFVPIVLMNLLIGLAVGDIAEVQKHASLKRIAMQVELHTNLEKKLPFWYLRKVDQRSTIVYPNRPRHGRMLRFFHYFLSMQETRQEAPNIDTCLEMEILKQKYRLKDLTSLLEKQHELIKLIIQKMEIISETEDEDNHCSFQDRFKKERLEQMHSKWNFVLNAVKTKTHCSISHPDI
T1 sequence (Q8R455 whole entry): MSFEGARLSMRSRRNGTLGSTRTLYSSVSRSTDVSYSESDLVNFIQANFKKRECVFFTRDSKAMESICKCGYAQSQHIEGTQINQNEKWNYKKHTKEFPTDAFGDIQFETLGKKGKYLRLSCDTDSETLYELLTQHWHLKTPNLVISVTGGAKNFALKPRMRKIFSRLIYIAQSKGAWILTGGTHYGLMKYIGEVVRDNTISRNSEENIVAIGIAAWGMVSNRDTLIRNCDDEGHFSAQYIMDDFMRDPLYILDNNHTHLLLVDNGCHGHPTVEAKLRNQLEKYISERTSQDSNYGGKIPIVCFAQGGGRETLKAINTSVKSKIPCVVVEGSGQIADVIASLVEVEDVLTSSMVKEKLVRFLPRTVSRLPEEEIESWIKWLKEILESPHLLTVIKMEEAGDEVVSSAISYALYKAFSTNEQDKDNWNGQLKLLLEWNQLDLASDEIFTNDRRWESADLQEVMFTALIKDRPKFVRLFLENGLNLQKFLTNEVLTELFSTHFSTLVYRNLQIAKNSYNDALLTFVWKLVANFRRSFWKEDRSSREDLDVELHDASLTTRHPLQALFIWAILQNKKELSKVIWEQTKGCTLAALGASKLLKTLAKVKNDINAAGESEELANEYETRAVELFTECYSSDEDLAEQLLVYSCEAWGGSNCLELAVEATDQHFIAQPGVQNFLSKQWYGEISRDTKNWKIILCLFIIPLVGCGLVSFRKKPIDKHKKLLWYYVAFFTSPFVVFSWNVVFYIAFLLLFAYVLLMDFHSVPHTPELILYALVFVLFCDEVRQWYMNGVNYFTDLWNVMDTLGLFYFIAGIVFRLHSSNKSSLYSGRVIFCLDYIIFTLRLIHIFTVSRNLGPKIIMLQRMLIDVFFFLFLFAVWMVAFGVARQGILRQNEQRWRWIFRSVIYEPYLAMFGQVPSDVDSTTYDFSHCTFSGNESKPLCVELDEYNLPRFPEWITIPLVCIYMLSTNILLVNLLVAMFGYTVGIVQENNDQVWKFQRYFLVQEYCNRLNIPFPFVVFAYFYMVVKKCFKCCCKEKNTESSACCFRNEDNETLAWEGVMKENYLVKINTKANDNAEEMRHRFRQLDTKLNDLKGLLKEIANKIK
T3 sequence (Q8NER1 whole entry): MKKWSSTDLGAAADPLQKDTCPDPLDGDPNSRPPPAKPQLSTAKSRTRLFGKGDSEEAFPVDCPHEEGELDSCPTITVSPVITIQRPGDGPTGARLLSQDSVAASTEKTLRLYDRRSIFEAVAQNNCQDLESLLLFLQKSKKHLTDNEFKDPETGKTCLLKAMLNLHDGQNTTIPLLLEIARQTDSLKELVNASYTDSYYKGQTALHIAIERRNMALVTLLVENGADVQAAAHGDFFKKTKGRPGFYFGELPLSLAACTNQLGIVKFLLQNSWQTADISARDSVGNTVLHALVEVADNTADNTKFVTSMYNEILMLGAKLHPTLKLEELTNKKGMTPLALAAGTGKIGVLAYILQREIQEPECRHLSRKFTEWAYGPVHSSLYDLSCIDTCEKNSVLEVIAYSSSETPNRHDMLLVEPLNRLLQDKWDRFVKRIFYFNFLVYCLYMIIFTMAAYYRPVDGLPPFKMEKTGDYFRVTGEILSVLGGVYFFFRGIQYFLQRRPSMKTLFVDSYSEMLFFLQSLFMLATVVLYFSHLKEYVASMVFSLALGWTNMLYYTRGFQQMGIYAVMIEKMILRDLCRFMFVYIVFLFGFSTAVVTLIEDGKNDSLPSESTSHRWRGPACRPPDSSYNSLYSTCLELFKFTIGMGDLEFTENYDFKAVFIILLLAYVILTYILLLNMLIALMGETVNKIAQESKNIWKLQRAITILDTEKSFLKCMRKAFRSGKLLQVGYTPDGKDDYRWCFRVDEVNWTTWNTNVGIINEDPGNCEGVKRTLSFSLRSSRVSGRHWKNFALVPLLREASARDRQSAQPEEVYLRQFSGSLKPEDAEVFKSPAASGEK

SMILES	IC50 (rat TRPM8 channel)	IC50 (rat TRPA1 channel [1])	Reduction of efficacy at TRPA1 versus parent compound 1 (rat TRPA1 channel [2])	Efficacy TRPA1 (% AITC 100 μM) (rat TRPA1 channel [2])	EC50 (rat TRPA1 channel [2])	Efficacy TRPV1 (% of 4 μM ionomycin) [3]
CC(=O)N[C@H](C)[C@H](C/C=C\C/C=C\C/C=C\C/C=C\C/C=C\C/C=C\CCCCCC[C@H](OC(C)=O)[C@@H](C)NC(C)=O)OC(C)=O [Compound 2]	44.6 ± 10.1 µM					
CC(=O)N[C@H](C)[C@H](C/C=C\CC(/C=C/C=C\C/C=C\C/C=C\C/C=C\CCCCCC[C@H](OC(C)=O)[C@@H](C)NC(C)=O)OC(C)=O)OC(C)=O (some centres unmarked) [Compound 4]	65.7 ± 8.6 µM					
C[C@@H](N)[C@@H](O)CCCCCCCCCCCCCCCCCCCCCCCC[C@H](O)[C@@H](C)N [Compound 5]	6.5 ± 0.3 µM	6.5 ± 0.4 µM	30%	69.2 ± 0.1 % AITC 100 μM	2.6 ± 0.1 µM	
CC(=O)N[C@H](C)[C@H](CCCCCCCCCCCCCCCCCCCCCCCC[C@H](OC(C)=O)[C@@H](C)NC(C)=O)OC(C)=O [Compound 6]	29 ± 0.6 µM	12.7 ± 0.8 µM		100.0 ± 9.7 % AITC 100 μM	9.7 ± 3.3 µM	
C[C@@H](N)[C@@H](O)C/C=C\C/C=C\C/C=C\C/C=C\C/C=C\C/C=C\CCCCCC[C@H](O)[C@@H](C)N [Leucettamol A (1), leucettamol A]	6.5 ± 0.3 µM	4.7 ± 0.2 µM		101.9 ± 12.4 % AITC 100 μM	3.7 ± 1.7 µM	
C[C@@H](N)[C@@H](O)C/C=C\CC(O)/C=C/C=C\C/C=C\C/C=C\C/C=C\CCCCCC[C@H](O)[C@@H](C)N (some centres unmarked) [Leucettamol B (3), leucettamol B]	6.4 ± 1 µM	4.7 ± 0.9 µM		103.3 ± 10.6 % AITC 100 μM	5.9 ± 1.9 µM	
COc1cc(CNC(=O)CCCC/C=C/C(C)C)ccc1O [capsaicin]						78.6 ± 2.4 % of 4 μM ionomycin

— paper PMC3509527, “Leucettamols, Bifunctionalized Marine Sphingoids, Act as Modulators of TRPA1 and TRPM8 Channels” (Marine Drugs, 2012)
